The subject of experiment [1] is H1975 (KRAS wild type human lung adenocarcinoma cell line). As to the kind of experiment: KRAS 3D-Cell Proliferation Assay, H1975 (Example 503). The class given is cell-based. The settings on record: Homo sapiens, NCI-H1975, 168 h, H1975 3D culture, 7 days, CellTiter-Glo 3D; read-out: Prolif H1975 3D ATP IC50. On the procedure: (§1) Example 503: KRAS 3D-Cell Proliferation Assays. Cellular potencies of compounds are assessed by evaluating inhibition of proliferation in 3D cultures of homozygous mutant KRAS G12D human pancreatic cell lines (AsPC-1 and HPAC) as compared to a KRAS wild type human lung adenocarcinoma cell line (PC-9 and/or H1975). Cells are seeded into 384-well black round-bottom, ultra-low attachment assay plates in 50 uL cell growth medium (RPMI-1640 with 10% fetal bovine serum and 2 mM L-glutamine). After overnight incubation at 37° C. and 5% CO2, compounds solubilized in DMSO are added as dilution series to the wells in a total volume of 150 nL (0.3% DMSO final). The cells are incubated for 7 days at 37° C. and 5% CO2. Cell proliferation is quantitated by addition of 40 uL/well of CellTiter-GloÒ 3D (Promega), and the well contents are mixed 20× at high speed using liquid handling automation workstation (Bravo with 384-well head) and centrifuged at 1500 rpm for 2 minutes to eliminate bubbles. This reagent in combination with mechanical disruption releases the cellular ATP to promote activity in a luciferase-based enzyme/substrate chemiluminescent detection system. After a 30-minute incubation under ambient conditions with shaking and an additional 10 minutes without shaking, the luminescence is read on a plate reader (e.g., EnVision [PerkinElmer]). The results are normalized to percent inhibition based on the following control samples: DMSO (0% inhibition) and 1 μM staurosporine (100% inhibition). The normalized luminescence results are plotted against compound concentration, and the data are fit to a 4-parameter Hill equation to determine the IC50 values.
Background: Cellular ATP, detected with luciferase, serves as a proxy for viable cell number.

Experiment [2] has as its system HPAC (homozygous mutant KRAS G12D human pancreatic cell line). As to the kind of experiment: KRAS 3D-Cell Proliferation Assay, HPAC (Example 503). The class given is cell-based. The settings on record: Homo sapiens, HPAC, 168 h, HPAC 3D culture, 7 days, CellTiter-Glo 3D; read-out: Prolif HPAC 3D ATP IC50. On the procedure: as §1

As usually defined, the IC50 is the midpoint of a concentration-inhibition curve.

For the compound `C[C@@H]1Oc2nc(-c3cc(N)c(F)cc3C(C)(F)F)c(F)c3nc(OC[C@@]45CCCN4C[C@H](F)C5)nc(c23)N2C[C@H]3CC[C@H](N3)[C@@H]12` [Compound 73, 4-(1,1-difluoroethyl)-2-fluoro-5-((5S,5aS,6S,9R)-1-fluoro-12-(((2R,7aS)-2-fluorotetrahydro-1H-pyrrolizin-7a(5H)-yl)methoxy)-5-methyl-5a,6,7,8,9,10-hexahydro-5H-4-oxa-3,10a,11,13,14-pentaaza-6,9-methanonaphtho[1,8-ab]heptalen-2-yl)aniline], the results for the 50% inhibitory concentration (IC50) in experiment [1] and in experiment [2] were 4090 nM and 16.3 nM, respectively.

As to `Cc1c(F)c(N)c(F)c(-c2nc3c4c(nc(OC[C@@]56CCCN5C[C@H](F)C6)nc4c2F)N2C[C@H]4CC[C@H](N4)[C@H]2[C@H](C)O3)c1CC(F)F` [Compound 175, 4-(2,2-Difluoroethyl)-2,6-difluoro-3-((5S,5aS,6S,9R)-1-fluoro-12-(((2R,7aS)-2-fluorotetrahydro-1H-pyrrolizin-7a(5H)-yl)methoxy)-5-methyl-5a,6,7,8,9,10-hexahydro-5H-4-oxa-3,10a,11,13,14-pentaaza-6,9-methanonaphtho[1,8-ab]heptalen-2-yl)-5-methylaniline], the IC50 in experiment [1] is 2340 nM; in experiment [2] it was 19.6 nM.

As for `Cc1nc(N)cc(-c2nc3c4c(nc(OCC56CCCN5CC(F)C6)nc4c2F)N2CC4CCC(N4)[C@H]2[C@@H](C(F)(F)F)O3)c1C(F)(F)F` (stereo in doubt) [Compound 243, 4-((6R,9S)-1-fluoro-12-(((2S,7aR)-2-fluorotetrahydro-1H-pyrrolizin-7a(5H)-yl)methoxy)-5-(trifluoromethyl)-5a,6,7,8,9,10-hexahydro-5H-4-oxa-3,10a,11,13,14-pentaaza-6,9-methanonaphtho[1,8-ab]heptalene-2-yl)-6-methyl-5-(trifluoromethyl)pyridin-2-amine], the concentration for half-maximal inhibition (IC50) in experiment [1] amounted to 20000 nM; in experiment [2], 2000 nM.

On to `Cc1nc(N)cc(-c2nc3c4c(nc(OCC5(CN6CC7CC(F)(F)C7C6)CC5)nc4c2F)N2C[C@H]4CC[C@H](N4)[C@H]2[C@H](C)O3)c1C(F)(F)F` (mixture of isomers) [Compound 264, 4-((5S,5aS,6S,9R)-12-((1-((6,6-difluoro-3-azabicyclo[3.2.0]heptan-3-yl)methyl)cyclopropyl)methoxy)-1-fluoro-5-methyl-5a,6,7,8,9,10-hexahydro-5H-4-oxa-3,10a,11,13,14-pentaaza-6,9-methanonaphtho[1,8-ab]heptalene-2-yl)-6-methyl-5-(trifluoromethyl)pyridin-2-amine], for which the IC50 in experiment [1] is 11000 nM; in experiment [2], 5.56 nM.

On to `Cc1c(F)c(N)cc(-c2nc3c4c(nc(OC[C@@H]5CC[C@H]6C[C@@H](F)CN56)nc4c2F)N2C[C@H]4CC[C@H](N4)[C@H]2[C@H](C)O3)c1C(F)(F)F` (single isomer, unassigned) [152 (isomer 1)], for which the values for the 50% inhibitory concentration (IC50) in experiment [1] and in experiment [2] were 787 nM and 17.4 nM, respectively.

For the compound `Cc1c(F)c(N)cc(-c2nc3c4c(nc(OCC5(CN6CC6(C)C)CC5)nc4c2F)N2C[C@H]4CC[C@H](N4)[C@H]2[C@H](C)O3)c1C(F)(F)F` (stereo partly drawn) [Compound 259, 5-((5S,5aS,6S,9R)-12-((1-((2,2-Dimethylaziridin-1-yl)methyl)cyclopropyl)methoxy)-1-fluoro-5-methyl-5a,6,7,8,9,10-hexahydro-5H-4-oxa-3,10a,11,13,14-pentaaza-6,9-methanonaphtho[1,8-ab]heptalen-2-yl)-2-fluoro-3-methyl-4-(trifluoromethyl)aniline], the IC50 in experiment [1] is 1970 nM; in experiment [2], 12.3 nM.

Turning to `Cc1cc(N)c(F)c(-c2nc3c4c(nc(OC[C@@]56CCCN5CC5(CC5(F)F)C6)nc4c2F)N2C[C@H]4CC[C@H](N4)[C@H]2[C@H](C)O3)c1C(F)(F)F` (stereo partly drawn) [Compound 227, 3-((5S,5aS,6S,9R)-12-(((7a′S)-2,2-Difluorodihydro-1′H,3′H-spiro[cyclopropane-1,2′-pyrrolizin]-7a′(5′H)-yl)methoxy)-1-fluoro-5-methyl-5a,6,7,8,9,10-hexahydro-5H-4-oxa-3,10a,11,13,14-pentaaza[6,9]methanonaphtho[1,8-ab]heptalene-2-yl)-2-fluoro-5-methyl-4-(trifluoromethyl)aniline], the values for the IC50 in experiment [1] and in experiment [2] were 679 nM and 0.516 nM, respectively.

On to `COCC1(F)CCN(CC2(COc3nc4c5c(nc(-c6cc(N)nc(C)c6C(F)(F)F)c(F)c5n3)O[C@@H](C)[C@@H]3[C@@H]5CC[C@H](CN43)N5)CC2)C1` (stereo partly drawn) [Compound 270, 4-((5S,5aS,6S,9R)-1-fluoro-12-((1-((3-fluoro-3-(methoxymethyl)pyrrolidin-1-yl)methyl)cyclopropyl)methoxy)-5-methyl-5a,6,7,8,9,10-hexahydro-5H-4-oxa-3,10a,11,13,14-pentaaza-6,9-methanonaphtho[1,8-ab]heptalen-2-yl)-6-methyl-5-(trifluoromethyl)pyridin-2-amine], for which the IC50 worked out at 2480 nM in experiment [1] and 2.52 nM in experiment [2].

`C[C@@H]1Oc2nc(-c3c(F)ccc4cc[nH]c(=O)c34)c(F)c3nc(OC[C@@]45CCCN4C[C@H](F)C5)nc(c23)N2C[C@H]3CC[C@H](N3)[C@@H]12` [Compound 196, 7-Fluoro-8-((5S,5aS,6S,9R)-1-fluoro-12-(((2R,7aS)-2-fluorotetrahydro-1H-pyrrolizin-7a(5H)-yl)methoxy)-5-methyl-5a,6,7,8,9,10-hexahydro-5H-4-oxa-3,10a,11,13,14-pentaaza-6,9-methanonaphtho[1,8-ab]heptalen-2-yl)isoquinolin-1(2H)-one]: the concentration for half-maximal inhibition (IC50) in experiment [1] and in experiment [2] was 20000 nM in each case.

On to `Cc1nc(N)cc(-c2nc3c4c(nc(OC[C@@]56CCCN5C[C@H](F)C6)nc4c2F)N2C[C@H]4CC[C@H](N4)[C@H]2[C@H](C)O3)c1CC(F)(F)F` [Compound 185, 4-((5S,5aS,6S,9R)-1-Fluoro-12-(((2R,7aS)-2-fluorotetrahydro-1H-pyrrolizin-7a(5H)-yl)methoxy)-5-methyl-5a,6,7,8,9,10-hexahydro-5H-4-oxa-3,10a,11,13,14-pentaaza-6,9-methanonaphtho[1,8-ab]heptalene-2-yl)-6-methyl-5-(2,2,2-trifluoroethyl)pyridin-2-amine], for which the IC50 turned out to be 4930 nM in experiment [1] and 32 nM in experiment [2].

Consider `Cc1c(F)c(N)cc(-c2nc3c4c(nc(OCC5CCC6CN(C)C(=O)CN56)nc4c2F)N2C[C@H]4CC[C@H](N4)[C@H]2[C@H](C)O3)c1C(F)(F)F` (mixture of isomers) [Compound 124, 6-((((5S,5aS,6S,9R)-2-(5-Amino-4-fluoro-3-methyl-2-(trifluoromethyl)phenyl)-1-fluoro-5-methyl-5a,6,7,8,9,10-hexahydro-5H-4-oxa-3,10a,11,13,14-pentaaza-6,9-methanonaphtho[1,8-ab]heptalen-12-yl)oxy)methyl)-2-methylhexahydropyrrolo[1,2-a]pyrazin-3(4H)-one], for which the concentration for half-maximal inhibition (IC50) worked out at 12200 nM in experiment [1] and 293 nM in experiment [2].

In the case of `CCc1cccc2nc(N)cc(-c3nc4c5c(nc(OC[C@@]67CCCN6C[C@H](F)C7)nc5c3F)N3C[C@H]5CC[C@H](N5)[C@H]3[C@H](C)O4)c12` [Compound 179, 5-Ethyl-4-((5S,5aS,6S,9R)-1-fluoro-12-(((2R,7aS)-2-fluorotetrahydro-1H-pyrrolizin-7a(5H)-yl)methoxy)-5-methyl-5a,6,7,8,9,10-hexahydro-5H-4-oxa-3,10a,11,13,14-pentaaza-6,9-methanonaphtho[1,8-ab]heptalene-2-yl)quinolin-2-amine], the IC50 in experiment [1] was determined as 8410 nM; in experiment [2] it was 294 nM.

In the case of `C[C@@H]1Oc2nc(-c3cccc4ccc(N)nc34)c(F)c3nc(OC[C@@]45CCCN4C[C@H](F)C5)nc(c23)N2C[C@H]3CC[C@H](N3)[C@@H]12` [Compound 114, 8-((5S,5aS,6S,9R)-1-Fluoro-12-(((2R,7aS)-2-fluorotetrahydro-1H-pyrrolizin-7a(5H)-yl)methoxy)-5-methyl-5a,6,7,8,9,10-hexahydro-5H-4-oxa-3,10a,11,13,14-pentaaza-6,9-methanonaphtho[1,8-ab]heptalen-2-yl)quinolin-2-amine], the IC50 in experiment [1] is 20000 nM; in experiment [2], 2000 nM.

For the compound `Cc1cc(N)c(F)c(-c2nc3c4c(nc(OC[C@@]56CCCN5C[C@H](F)C6)nc4c2F)N2C[C@H]4CC[C@H](N4)[C@H]2[C@H](C)O3)c1I` [Compound 108, 2-Fluoro-3-((5S,5aS,6S,9R)-1-fluoro-12-(((2R,7aS)-2-fluorotetrahydro-1H-pyrrolizin-7a(5H)-yl)methoxy)-5-methyl-5a,6,7,8,9,10-hexahydro-5H-4-oxa-3,10a,11,13,14-pentaaza-6,9-methanonaphtho[1,8-ab]heptalen-2-yl)-4-iodo-5-methylaniline], the half-maximal inhibitory concentration (IC50) in experiment [1] was 772 nM; in experiment [2], 2.85 nM.

In the case of `Cc1c(F)c(N)cc(-c2nc3c4c(nc(OC[C@]56CCCN5C[C@H](F)[C@@H]6F)nc4c2F)N2C[C@H]4CC[C@H](N4)[C@H]2[C@H](C)O3)c1C(F)(F)F` (single isomer, unassigned) [143 (isomer 1)], the values for the concentration for half-maximal inhibition (IC50) in experiment [1] and in experiment [2] were 972 nM and 4.72 nM, respectively.
